# Measured values published in patent US9717752B2, “Uses of antagonists of hyaluronan signaling” (The United States of America, as represented by the …, priority 2012, dated 2017).
# “Also recorded” adds a separate entry of the source.
# Experiments:
# mouse tracheal rings = assay: Tracheal ring assay, in vitro model of mouse airway smooth muscle cell contractility; type: cell-based; settings: for effect on sHA-exaggerated contractile response of tracheal rings to carbachol: 1 mg/mL sHA+0.5 mg/mL oHA
# Protocol: Airway smooth muscle reactivity was assessed in temperature-controlled (37° C.) organ baths containing Krebs-Henseleit buffer solution of the following composition: 118 mM NaCl, 4.7 mM KCl, 2.5 mM CaCl2, 1.2 mM MgSO4, 25 mM NaHCO3, 1.2 mM KH2PO4, and 11.1 mM glucose, continuously bubbled with 5% CO2 and 95% O2. Tracheal segments were mounted in organ baths between two metal hooks and connected to a K30 force displacement transducer under approximately 5-mN resting tension. Isometric contractile responses were recorded after dosing with carbachol (a bronchial constrictor) and isoproterenol (a bronchial dilator).
# [1] = system: mice exposed to inhaled endotoxin (LPS); assay: Murine model of inflammatory asthma (inhaled endotoxin/LPS), airway resistance; type: in vivo; settings: for airway resistance after inhaled endotoxin (LPS) exposure: LPS+oHA, 50 μl of 1.5 mg/ml oHA by oropharyngeal aspiration after exposure
# Protocol: (§1) Measurements of respiratory mechanics were made by the forced oscillation technique. Response to aerosolized methacholine (0, 10 mg/ml, 25 mg/ml, and 100 mg/ml) was determined by resistance measurements every 30 seconds for 5 minutes, ensuring the parameters calculated had peaked. The resistance measurements were then averaged at each dose and graphed (RT, measured in cm H2O/ml/s) along with the initial baseline measurement.
# In the following studies to evaluate the effect of oHA, mice were exposed to sHA (50 μl of a 1 mg/ml sHA solution in PBS—sonicated Healon, AMO Inc., Santa Ana, Calif.) or inhaled endotoxin (5 μg/m^3) over 2.5 hours. Mice were phenotyped for AHR at typical time points for each of these exposures: 2 hours after sHA instillation; or 4 hours after endotoxin exposure. Thirty minutes prior to phenotyping, mice received appropriate treatment (saline, vehicle or oHA) by oropharyngeal aspiration. Mice were treated with 50 μl of 1.5 mg/ml oHA. Phenotyping was with invasive airway pressure measurements (FlexiVent™).
# [2] = system: human airway smooth muscle cells (ASMC); assay: Gel contraction: human airway smooth muscle cells in 3-dimensional collagen-hyaluronan gels; type: cell-based
# Protocol: The in vitro effect of heparosan on human airway smooth muscle cells (ASMC) was tested in 3-dimensional, collagen-hyaluronan gels. Collagen-only gels were used as controls. Human ASMC (6×10^5 cells/ml) in basal media were seeded into the gel solution and incubated up to 36 hours at 37° C. in 5% CO2. Gels were scanned at varying time intervals to monitor gel contraction. After 24 hours, the gels were fixed with 4% paraformaldehyde and stained with phalloidin and DAPI. In some experiments, the ROCK inhibitor Y-27632 was added to the gel. Change in gel area was measured by NIH Image J software.
# mice exposed to sHA = assay: In vivo model of airway contraction (AHR) after sHA instillation, airway resistance to methacholine; settings: 50 μl of 1-2 mg/ml by oropharyngeal aspiration, methacholine challenge 2 hours after sHA, compared to sHA with saline
# Protocol: as §1
# (§2) In the following studies to evaluate the effect of heparosan, mice were exposed to one of several agents: sHA (50 μl of a 1 mg/ml sHA solution in PBS—sonicated Healon, AMO Inc., Santa Ana, Calif.); 1 ppm ozone (O3) for 4 hours; or inhaled OVA (sensitization with i.p. injection of 10 μg OVA (Sigma, St. Louis, Mo.), adsorbed to 2 mg of alum adjuvant (Pierce Biotechnology, Inc., Rockford, Ill.) diluted in saline on days 0 and 7, 60 minutes inhaled exposure to 1% OVA aerosol on days 14 and 15). Mice were phenotyped for AHR at typical time points for each of these exposures: 2 hours after sHA instillation; 24 hours after ozone exposure; and 48 hours after second OVA exposure. Thirty minutes prior to phenotyping, mice received appropriate treatment (saline, heparosan or heparin) by oropharyngeal aspiration. Mice received 50 μl of a 1-2 mg/ml solution of heparosan or heparin (or 50 μl of saline as a control). […]
# [3] = system: mice sensitized to ovalbumin and exposed to inhaled ovalbumin; assay: Murine model of airway contraction in allergic asthma (ovalbumin), airway resistance; type: in vivo; settings: given 48 hours after OVA exposure, 50 μl of 1-2 mg/ml by oropharyngeal aspiration, compared to saline placebo
# Protocol: as §1, §2
# mice exposed to ozone = assay: Murine model of airway contraction after ozone exposure, airway resistance; type: in vivo; settings: 1 ppm ozone for 4 hours, given 24 hours after exposure, 50 μl of 1-2 mg/ml by oropharyngeal aspiration, compared to saline placebo
# Protocol: as §1, §2
Substance,effect on sHA-exaggerated contractile response of tracheal rings to carbachol (mouse tracheal rings),airway resistance after inhaled endotoxin (LPS) exposure [1],airway contractility without LPS exposure ([1]; saline+oHA (oHA alone)),"effect on sHA-induced contraction of gel containing human ASMC ([2]; collagen-hyaluronan gel, change in gel area)",airway resistance after sHA exposure (mice exposed to sHA),airway resistance in ovalbumin allergic asthma model [3],airway resistance after ozone exposure (mice exposed to ozone),"contraction of gel containing human ASMC ([2]; sHA alone, versus collagen-only control gels)",contractile response of tracheal rings to carbachol (mouse tracheal rings; 1 mg/mL sHA versus 0 mg/mL sHA)
hyaluronan oligosaccharide [oHA],inhibited this action,led to decreased airway resistance,had no effect on airway contractility,–,–,–,–,–,–
heparosan,ameliorates tracheal ring contractility,inhibits inflammatory AHR,–,"inhibited this action, and was indistinguishable from control cells",decreased the development of airway resistance,led to decreased airway resistance compared to saline placebo treatment,led to decreased airway resistance compared to saline placebo treatment,–,–
heparin [reference compound],–,–,–,–,increased the development of airway resistance,increased the development of airway resistance,had no effect on airway resistance beyond saline,–,–
"short fragment hyaluronan [sHA, reference compound]",–,–,–,–,–,–,–,led to rapid contraction of a gel containing human ASMC; also recorded: led to rapid contraction of a gel containing haSMC,led to an exaggerated contractile response of mouse tracheal rings to the constrictor substance carbachol
